Data: paper PMC6095626, “Screening of the Pathogen Box for inhibitors with dual efficacy against Giardia lamblia and Cryptosporidium parvum” (PLoS Neglected Tropical Diseases, 2018)
Entries after “also recorded” stand apart in the source; their conditions may differ.

Columns and labels:
[1] = tested on: G. lamblia trophozoites (luciferase expressing, WBC6); assay: microbe, parasite or virus in culture; type: cell-based, Giardia lamblia; conditions: for Giardia (16 uM) Mean % inhibition: initial Pathogen Box screen, single concentration 16 µM, inhibition compared to DMSO wells
Method in brief: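 Incubation ran 24 h at 37 °C under anaerobic conditions, with compound added in equal volume to trophozoites (WBC6, luciferase-expressing, 250,000 cells/mL). Bioluminescence was the read-out, cross-checked by MOXI Z counts on a duplicate plate; metronidazole served as control (1:2 dilutions from 40 μM).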

[2] = tested on: C. parvum (UGA1 Nluc expressing strain in HCT-8 cells); assay: microbe, parasite or virus in culture; type: cell-based, Cryptosporidium parvum; conditions: for Crypto (10 uM) Mean % inhibition: initial Pathogen Box screen, single concentration 10 µM, inhibition compared to DMSO wells
Method in brief: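 Parasite growth quantified by NanoLuc luminescence from lysed infected HCT-8 cells, with EC50 fitted from dose curves. Compounds, single-dose 10 μM or serially diluted, were added to confluent 48 h monolayers before infection with bleached UGA1 Nluc oocysts.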

Structure (SMILES) | Giardia (16 uM) Mean % inhibition [1] | Crypto (10 uM) Mean % inhibition [2] | C. parvum cell growth inhibition in the initial screen ([2]; 10 μM, 48 hours) [%] | G. lamblia EC50 ([1]; luciferase expressing G. lamblia trophozoites, 24 hours, D-luciferin bioluminescence read-out) | EC50 ([2]; Nluc C. parvum in HCT-8 cells, 48 hours, read-out: C. parvum EC50) [nM]
c1ccc(Oc2ccc(-c3cc(CN4CCOCC4)[nH]n3)cc2)cc1 [MMV676161] | 33% | X* (Mean or standard deviation are negative but not significantly different from the control to be a growth promoter) | – | – | –
CCS(=O)(=O)N(Cc1ccco1)Cc1cc2ccc(C)cc2[nH]c1=O [MMV676398] | 22% | X* (Mean or standard deviation are negative but not significantly different from the control to be a growth promoter) | – | – | –
Cc1[nH]c2cc(F)cc(F)c2c(=O)c1-c1ccc(Oc2ccc(OC(F)(F)F)cc2)cc1 [MMV671636] | 18% | X* (Mean or standard deviation are negative but not significantly different from the control to be a growth promoter) | – | – | –
Cc1cc(C)cc(COc2ccc3c(C)c(CCC(=O)O)c(=O)oc3c2C)c1 [MMV676476] | 35% | X* (Mean or standard deviation are negative but not significantly different from the control to be a growth promoter) | – | – | –
O=C(Nc1ccc(N2CCNCC2)nc1)c1oc(-c2ccccc2)nc1C(F)(F)F [MMV024937] | 7% | X* (Mean or standard deviation are negative but not significantly different from the control to be a growth promoter) | – | – | –
CN(C(=O)c1cc2c(-c3cncnc3)cccc2[nH]1)c1ccccc1 [MMV024443] | X* (Mean or standard deviation are negative but not significantly different from the control to be a growth promoter) | 87% | – | – | –
CCc1nc2ccc(C(=O)NCc3ccc4c(c3)OCO4)cn2c1N(C)Cc1cccs1 [MMV407539] | 17% | 59% | – | – | –
COc1ccc(CCN2CCC(NCc3cccc(N(C)C)c3)CC2)cc1 [MMV011511] | 73% | X* (Mean or standard deviation are negative but not significantly different from the control to be a growth promoter) | – | – | –
COc1cc(C(F)(F)F)nc2ccc(C)c(N)c12 [MMV047015] | 65% | 1.83% | – | – | –
Cc1ccc2nc(Cl)c(CNCc3cccs3)cc2c1 [MMV676439] | 70% | 81% | – | – | –
COc1nc2ccc(Br)cc2cc1[C@@H](c1ccccc1)[C@@](O)(CCN(C)C)c1cccc2ccccc12 [MMV689758] | 62% | 68% | – | – | –
O=C(NC1CC1)c1ccc(N2CCC(Cc3ccccc3)CC2)nc1 [MMV024397] | X* (Mean or standard deviation are negative but not significantly different from the control to be a growth promoter) | X* (Mean or standard deviation are negative but not significantly different from the control to be a growth promoter) | – | – | –
O=C(c1cc2ccccc2o1)N1CCN(Cc2ccc3c(c2)OCO3)CC1 [MMV676520] | 0.776% | 51% | – | – | –
O=C(Nc1c(O)cccc1-c1nc2c(C(=O)O)cccc2o1)c1cc(-c2ccccc2)on1 [MMV676008] | 41% | X* (Mean or standard deviation are negative but not significantly different from the control to be a growth promoter) | – | – | –
CCOc1ccccc1NC(C)C(=O)Nc1cc(C(F)(F)F)ccc1N1CCOCC1 (centres unmarked) [MMV407834] | 33% | X* (Mean or standard deviation are negative but not significantly different from the control to be a growth promoter) | – | – | –
CN1CCN(c2nccc3[nH]c(-c4cccc(F)c4)cc23)CC1 [MMV393144] | 77% | 50% | – | – | –
COc1cc(C2=NCCN2)ccc1-n1cc(-c2cccc(C3=NCCN3)c2)nn1 [MMV688474] | 18% | X* (Mean or standard deviation are negative but not significantly different from the control to be a growth promoter) | – | – | –
Cc1cc(C)n2nc(C(=O)Nc3cc(C(F)(F)F)ccc3N3CCOCC3)nc2n1 [MMV019087] | X* (Mean or standard deviation are negative but not significantly different from the control to be a growth promoter) | 35% | – | – | –
CO[C@@H]1CN(c2ccc(C#CC3(O)CN4CCC3CC4)c(Cc3ccccc3)n2)C[C@H]1O (some centres unmarked) [MMV688415] | X* (Mean or standard deviation are negative but not significantly different from the control to be a growth promoter) | X* (Mean or standard deviation are negative but not significantly different from the control to be a growth promoter) | – | – | –
Cc1ccc(-c2nc(CN(Cc3ccccn3)C(C)C)cs2)o1 [MMV1088520] | 52% | 27% | – | – | –
CCNC(=O)C(C)Nc1nc(-c2cccnc2)nc2sc(C)c(C)c12 (centres unmarked) [MMV1037162] | 11% | 20% | – | – | –
COc1cc(N[C@@H](C)CCCN)c2ncccc2c1 [MMV000023] | 47% | 14% | – | – | –

Structure (SMILES) | Giardia (16 uM) Mean % inhibition [1] | Crypto (10 uM) Mean % inhibition [2] | C. parvum cell growth inhibition in the initial screen ([2]; 10 μM, 48 hours) [%] | G. lamblia EC50 ([1]; luciferase expressing G. lamblia trophozoites, 24 hours, D-luciferin bioluminescence read-out) | EC50 ([2]; Nluc C. parvum in HCT-8 cells, 48 hours, read-out: C. parvum EC50) [nM]
CC(=O)NC[C@H]1CN(c2ccc(N3CCSCC3)c(F)c2)C(=O)O1 [MMV688756] | 22% | 39% | – | – | –
O=C(NCc1nnc2n1CCCCC2)c1ccc(-c2ccc(F)cc2)o1 [MMV688796] | 52% | 44% | – | – | –
CCOc1ccc2cc(-c3nn(C(C)(C)C)c(N)c3C(N)=O)cnc2c1 [MMV688853] | X* (Mean or standard deviation are negative but not significantly different from the control to be a growth promoter) | 96% | ≥ 95 | – | –
CCCn1c(CNc2ccccc2O)nc2ccccc21 [MMV676445] | 13% | X* (Mean or standard deviation are negative but not significantly different from the control to be a growth promoter) | – | – | –
CC(C)n1ncc2c(C(=O)NCC(c3cccs3)N3CCOCC3)cc(-c3ccccc3)nc21 (centres unmarked) [MMV676406] | 34% | X* (Mean or standard deviation are negative but not significantly different from the control to be a growth promoter) | – | – | –
CC(C)(C)OC(=O)N1CCC(Cn2nc(-c3cnc4ccccc4c3)c3c(N)ncnc32)CC1 [MMV688364] | 56% | X* (Mean or standard deviation are negative but not significantly different from the control to be a growth promoter) | – | – | –
CC(C)(C)n1nc(Cc2cccc3ccccc23)c2c(N)ncnc21 [MMV676599] | 21% | 86% | – | – | –
CNC(=O)c1nn(C)c2c1C(C)(C)Cc1cnc(Nc3ccc(N4CCN(C)CC4)cc3)nc1-2 [MMV676602] | 94% | 85% | – | not effective; also recorded: not potent | 310
CCOc1ccc(-c2nc(CNCCc3ccc(F)cc3)cs2)cc1 [MMV688938] | 65% | X* (Mean or standard deviation are negative but not significantly different from the control to be a growth promoter) | – | – | –
Nc1ncnc2c1ncn2C[C@@H](O)[C@@H](O)C(=O)O [MMV689255] | 33% | 46% | – | – | –
Cc1cc(C)n(-c2ccc(NC(=O)C3CCN(Cc4cnc(C)s4)CC3)cc2)n1 [MMV007625] | 27% | X* (Mean or standard deviation are negative but not significantly different from the control to be a growth promoter) | – | – | –
CN1CCCN(C(c2ccccc2)c2ccc(Cl)cc2)CC1 (centres unmarked) [MMV004168] | 27% | 56% | – | – | –
CCOc1ccc(-c2nc(NC(=O)CS(=O)(=O)c3ccccc3)sc2C)cc1 [MMV007638] | 8% | X* (Mean or standard deviation are negative but not significantly different from the control to be a growth promoter) | – | – | –
Cc1nn(C)cc1C(C)Nc1nncc(-c2ccc(C(F)(F)F)cc2)n1 (centres unmarked) [MMV019993] | 22% | X* (Mean or standard deviation are negative but not significantly different from the control to be a growth promoter) | – | – | –
C[C@H]1COC2(CCN(c3nc(=O)c4cc(C(F)(F)F)cc([N+](=O)[O-])c4s3)CC2)O1 [MMV676603] | 77% | X* (Mean or standard deviation are negative but not significantly different from the control to be a growth promoter) | – | – | –
CCOC(=O)c1cc(-c2csc(Nc3c(C)cc(C)cc3C)n2)on1 [MMV676461] | 31% | 76% | – | – | –
CS(=O)(=O)c1ccccc1C(=O)N(Cc1ccccc1)c1ccccc1 [MMV688798] | 9% | 46% | – | – | –
CCC(=O)Nc1ccccc1C(=O)Nc1ccccn1 [MMV202553] | 35% | 20% | – | – | –
CO/C=C(\C(=O)OC)c1ccccc1Oc1cc(Oc2ccccc2C#N)ncn1 [MMV021057] | 3.75% | 51% | – | – | –
O=C(Cn1ccnc1[N+](=O)[O-])NCc1ccccc1 [MMV688773] | 57% | 55% | – | – | –
Cc1cc(Cl)c(S(=O)(=O)N2CCCC2)cc1OCC(=O)NC1CCCCC1 [MMV006833] | 17% | 70% | – | – | –
